The record followed here is patent US9597407B2, “Targeted antimicrobial moieties” (C3 Jian, Inc., priority 2009, dated 2017).

“Also recorded” adds a separate entry of the source. Square brackets hold non-standard residues; d marks the D form. Ends that are not written are not given here. dOrn = NCCC[C@@H](N)C(=O)O; Orn = NCCC[C@H](N)C(=O)O

The test system of one test is bacteria. The test can be described thus: Binding of targeting peptides to microorganisms (Table 3). To be noted: preferably 1x PBS; for Target(s) (microorganisms bound by the targeting peptide) / Target(s) (microorganism bound by the targeting peptide): peptide binding in aqueous buffers that varied depending on peptide solubility.
The next test relates to microorganisms. The test can be described thus: Morphology, biofilm and growth disruption by peptides (Table 5). The class given is cell-based. Set-up: key: A: Peptide aggregates; B: Less hyphal formation; Clumps; Diffuse clumps and small polyps; F: Diffuse growth; H: Thin; I: Growth inhibition; Microcolony formation; Rippled; Small polyps; Thick; W: Halo formation on top, microlonies on bottom. From the text: In certain embodiments peptides that induce alterations in phenotype or other biological activities can also be used as antimicrobial effector moieties.

[1] abbreviates: microorganism the targeting peptide binds, binding in aqueous buffers that varied with peptide solubility.

In the case of ALDCSEQSVILWYETILDKIVGVIK [PF-028], the “Target(s)” value in the test with bacteria (setting [1]) was “S. epidermidis and M. luteus and MRSA”. Also, the entries for the “Organism, effect” value in the test with microorganisms (C. jeikeium), in the test with microorganisms (MRSA) and in the test on microorganisms (S. epidermidis) were “C. jeikeium (M)”, “MRSA (R)” and “S. epidermidis (M)”, respectively.

On to CGKLLEQKNFFLKTR [PF-521], for which the “Target(s) (microorganisms bound by the targeting peptide)” value in the test with bacteria was “S. epidermidis; also recorded: E. coli; also recorded: P. aeruginosa; also recorded: S. pneumoniae; also recorded: E. faecalis”. Moreover, the “Organism, effect (morphology, biofilm and growth disruption)” value with microorganisms (S. pneumoniae) is recorded as “S. pneumoniae (H)”.

For DEIKVSDEEIEKFIKENNL [PF-597], the “Target(s) (microorganism bound by the targeting peptide)” value in the test on bacteria is given as “P. mirabilis”. In addition, the “Organism, effect (morphology, biofilm and growth disruption)” value with microorganisms (E. faecalis) is listed as “E. faecalis (A)”.

On to FELVDWLETNLGKILKSKSA-NH2 [PF-522], for which the “Target(s) (microorganisms bound by the targeting peptide)” value in the test on bacteria is “S. epidermidis; also recorded: E. coli; also recorded: P. aeruginosa; also recorded: S. pneumoniae; also recorded: E. faecalis”. Also, the “Organism, effect (morphology, biofilm and growth disruption)” value in the test with microorganisms (S. pneumoniae) is listed as “S. pneumoniae (H)”.

As to “GNVHPESDFHNLIQFIKTFLYFTIFFKYFL [PF-C290]”, the “Target(s) (microorganism bound by the targeting peptide)” value with bacteria is on record as “A. naeslundii; also recorded: F. nucleatum; also recorded: P. gingivalis; also recorded: S. mutans; also recorded: T. denticola”. In addition, the “Organism, effect (morphology, biofilm and growth disruption)” value with microorganisms (S. mutans) was “S. mutans (F)”.

As to HCVIGNVVDIANLLKRRAVYRDIADVIKMR [PF-071], the “Target(s)” value in the test on bacteria (setting [1]) is “S. epidermidis and E. coli and P. aeruginosa and C. albicans and MRSA”. Further, the “Organism, effect” value in the test on microorganisms (B. subtilis) is listed as “B. subtilis (D)”; with microorganisms (C. albicans), “C. albicans (B)”; in the test on microorganisms (C. jejuni), “C. jejuni (A)”; in the test with microorganisms (M. luteus) it was “M. luteus (R)”; in the test with microorganisms (MRSA) it was “MRSA (C)”; in the test with microorganisms (S. epidermidis), “S. epidermidis (R)”. Further, the “Organism, effect” value in the test on microorganisms (S. pneumoniae) is “S. pneumoniae (A)”.

Turning to HKNKLNIPHIKS [PF-477], the “Target(s) (microorganisms bound by the targeting peptide)” value in the test with bacteria is reported as “S. epidermidis; also recorded: M. luteus; also recorded: C. albicans; also recorded: S. pneumoniae; also recorded: C. jeikeium; also recorded: C. jejuni”. The “Organism, effect (morphology, biofilm and growth disruption)” value in the test with microorganisms (S. pneumoniae) was “S. pneumoniae (H)”.

In the case of KKFKIFVIINWFYHKYIILNFEENF [PF-C085], the “Target(s) (microorganism bound by the targeting peptide)” value with bacteria is “A. naeslundii; also recorded: F. nucleatum; also recorded: P. gingivalis; also recorded: S. mutans; also recorded: T. denticola”. In addition, in the test with microorganisms (S. mutans), the “Organism, effect (morphology, biofilm and growth disruption)” value is given as “S. mutans (F)”.

For LHVIRPRPELSELKFPITKILKVNKQGLKK [PF-752], the “Target(s) (microorganism bound by the targeting peptide)” value in the test on bacteria was “S. epidermidis and E. coli and MRSA and S. pneumoniae and E. faecalis”. Besides, the “Organism, effect (morphology, biofilm and growth disruption)” value with microorganisms (S. pneumoniae) is “S. pneumoniae (C)”.

In the case of LIQKGLNQTFIVVIRLNNFIKKS [PF-013], the “Target(s)” value in the test on bacteria (setting [1]) was “M. luteus and P. mirabilis and E. coli and P. aeruginosa and MRSA and S. pneumoniae and C. jeikeium and C. jejuni”. For the same substance, the “Organism, effect” value in the test on microorganisms (C. jeikeium) is given as “C. jeikeium (D)”; with microorganisms (M. luteus), “M. luteus (D)”; with microorganisms (MRSA) it was “MRSA (R)”; in the test with microorganisms (S. epidermidis), “S. epidermidis (C)”.

As for “LMFFSENMDKRDTLSGKFRYFAGSKVIKLMNWLSENGK [PF-226]”, in the test with bacteria (microorganism bound by the targeting peptide, binding in aqueous buffers chosen by peptide solubility), the “Target(s)” value was “A. baumannii”. Moreover, the figures for the “Organism, effect” value with microorganisms (M. luteus) and in the test on microorganisms (S. epidermidis) were “M. luteus (T)” and “S. epidermidis (C)”, respectively.

Consider LNFRAENKILEKIHISLIDTVEGSA [PF-575], for which the “Target(s) (microorganisms bound by the targeting peptide)” value with bacteria is “M. luteus and E. coli and C. albicans and MRSA and S. pneumoniae and E. faecalis and C. jeikeium”. For the same substance, the “Organism, effect (morphology, biofilm and growth disruption)” value is reported as “C. jeikeium (A)” in the test with microorganisms (C. jeikeium), “C. jejuni (R)” in the test on microorganisms (C. jejuni), “P. aeruginosa (A)” with microorganisms (P. aeruginosa) and “S. pneumoniae (A)” in the test with microorganisms (S. pneumoniae).

As for “PF-S004 (VLLNIFRTLLEFFSPSNAPGAEDVPLPDTQA; Peptide with targeting and/or antimicrobial activity)”, the “Target(s) (microorganism bound by the targeting peptide)” value in the test on bacteria was “S. epidermidis and MRSA and C. jeikeium”.

“PF-S007 (VVAGVVLLTALAVGSKRKEKKQIKEIQRLLAATR; Peptide with targeting and/or antimicrobial activity)”: the “Target(s) (microorganism bound by the targeting peptide)” value in the test on bacteria is “S. epidermidis and MRSA”.

With “PF-S015 (IENLERGARRPP; Peptide with targeting and/or antimicrobial activity)”, in the test on bacteria, the “Target(s) (microorganism bound by the targeting peptide)” value is “S. epidermidis and MRSA and C. jeikeium”.

Regarding “PF-S018 (GMPQIPRLRI; Peptide with targeting and/or antimicrobial activity)”, the “Target(s) (microorganism bound by the targeting peptide)” value with bacteria was “S. epidermidis and M. luteus and C. albicans and MRSA and E. faecalis and C. jeikeium and C. jejuni”.

Consider “PF-S023 (MAEDERRALKRRTNRGRTRTRKRITV; Peptide with targeting and/or antimicrobial activity)”, for which, in the test on bacteria, the “Target(s) (microorganism bound by the targeting peptide)” value was “S. epidermidis and MRSA”.

For “PF-S024 (SKRGRKRKDRRKKKANHGKRPNS; Peptide with targeting and/or antimicrobial activity)”, in the test on bacteria (setting [1]), the “Target(s)” value is on record as “Corynebacteria”.

For “PF-S026 (TELKYNGEEYLLLTQRDILAVIEK; Peptide with targeting and/or antimicrobial activity)”, the “Target(s) (microorganism bound by the targeting peptide)” value in the test with bacteria was “S. epidermidis and MRSA and C. jeikeium”.

“PF-S029 (TSDTQSQSPWLFDNADIVNIYPVQLMHSSDND; Peptide with targeting and/or antimicrobial activity)”: the “Target(s) (microorganism bound by the targeting peptide)” value in the test with bacteria is on record as “M. luteus; also recorded: P. mirabilis; also recorded: E. coli; also recorded: C. albicans; also recorded: C. jeikeium; also recorded: C. jejuni”.

As for “Py Pf 12 ([dS]KG[Orn][dS]SGK[dOrn]ES; bridge (positions not given here); not fully specified (bridges))”, in the test on bacteria (setting [1]), the “Target(s)” value is recorded as “P. fluorescens”.

As to “TT-305 (ARNALNMRDVPVDAAIIGIIDGMDEE; Peptide with targeting and/or antimicrobial activity)”, the “Target(s)” value in the test with bacteria (setting [1]) is “F. nucleatum”.

Turning to “TT-306 (KILNEAEGKLLKVIEKNGEIDIEEI; Peptide with targeting and/or antimicrobial activity)”, the “Target(s)” value in the test with bacteria (setting [1]) is reported as “F. nucleatum”.

Regarding “TT-307 (NGDKKAKEELDKWDEVIKELNIQF; Peptide with targeting and/or antimicrobial activity)”, the “Target(s)” value in the test with bacteria (setting [1]) is “F. nucleatum”.

For “TT-308 (GLVIIPNLIALIILFSQVRQQTKDYFSNPKLSSR; Peptide with targeting and/or antimicrobial activity)”, in the test on bacteria (setting [1]), the “Target(s)” value is “F. nucleatum”.

As to “TT-309 (EPLPLTKYDKKDTEMKKVFKEILAGKVGYEKEEE; Peptide with targeting and/or antimicrobial activity)”, the “Target(s)” value in the test with bacteria (setting [1]) was “F. nucleatum”.

In the case of “TT-310 (TKLKKNNKLLSAKKENTLHTKDK; Peptide with targeting and/or antimicrobial activity)”, the “Target(s)” value in the test with bacteria (setting [1]) is recorded as “F. nucleatum”.

Consider “TT-311 (AIFDAMHNL; Peptide with targeting and/or antimicrobial activity)”, for which the “Target(s)” value in the test on bacteria (setting [1]) is reported as “S. mutans; also recorded: S. sobrinus”.

For the substance VYSFLYVLVIVRKLLSMKKRIERL [PF-499], the “Target(s) (microorganisms bound by the targeting peptide)” value in the test on bacteria was “S. mutans; also recorded: E. coli”.
